From patent US20160025704A1, “METHODS FOR IDENTIFYING NEUROPROTECTIVE PKC ACTIVATORS” (priority 2013, published 2016)

Key:
Primary human neurons = test: Synaptogenicity in primary human neurons; format: cell-based; conditions: 0.27 nM
Protocol: Protocol: Primary human neurons were treated with either DCPLA-methyl ester (100 nM) or bryostatin-1 (0.27 nM).

Human primary neurons = test: ASPD-induced apoptosis in human primary neurons (Annexin-V Fluorescein); format: cell-based; conditions: 0.27 nM with 100 nM ASPD, 24 hours
Protocol: Protocol: Human primary neurons were grown on chambered slides and treated with vehicle (Control), 100 nM ASPD, ASPD+DCPLA-ME (100 nM), ASPD+bryostatin 1 (0.27 nM) and ASPD+DCPLA-ME (100 nM) or ASPD+bryostatin 1 (0.27 nM) in presence of PKC-ε inhibitor. Following 24 hours of incubation, cells were stained using Annexin-V Fluorescein to detect apoptotic cells and results are shown in FIG. 10 below. […] Data are mean±SEM of three independent experiments. (*p<0.05;** p<0.005 and *** p<0.0005).

human neprilysin = test: Neprilysin activity in SH+hNEP cells (fluorometric); format: cell-based; conditions: 1 nM for 15 min to 3 hours; 0.27, 0.5, 1, or 2 nM for 1 hr (FIG. 32)
Protocol: Protocol: Intact SH+hNEP cells were incubated in the absence or presence of bryostatin (1 nM) for 15 min, 30 min, 1 hour, or 3 hours. Cells were then lysed and neprilysin activity was measured. 50 μg of total lysates were separately incubated with 0.5 mM glutaryl-Ala-Ala-Phe-4-methoxy-2-naphthylamide as a substrate. Further incubation with leucine aminopeptidases released free 4-methoxy-2-naphthylamide that was measured fluorometrically at an emission of 425 nm (Mean+SEM of three independent experiments, *P<0.05; **P<0.01, Bryo compared with untreated condition). Intact SH+hNEP cells were incubated in the absence or presence of bryostatin (Bryo) at 0.27, 0.5, 1, or 2 nM concentration for 1 hr, lysed and then neprilysin activity for each condition was fluorometically measured as shown in (A) (Mean+SEM of three independent experiments, *P<0.05; **P<0.01, Bryo compared with untreated condition). Results are shown below in FIG. 32 (A—fluorometric results of free 4-methoxy-2-naphthylamide measured at different time points; B—fluorometric results of free 4-methoxy-2-naphthylamide measured at different concentrations of bryostatin).
Immunoprecipitates were subjected to Western blot analysis using phospho-Ser/Thr or neprilysin antibody (Mean+SEM of three independent experiments, **P<0.01, Bryo compared with untreated; #P<0.01, Ro+Bryo compared with Bryo). […]

cerebral ischemia rats = test: Spatial learning, memory and visible platform test after cerebral ischemia; format: in vivo; conditions: 15 μg/m2 tail vein
Protocol: Protocol: Bryostatin-1 (15 μg/m2) was administered through a tail vein (2 doses/week, for 10 doses), starting 24 hours after the end of the ischemic (2-VO)/hypoxic event. The ability of the rats in spatial learning (2 trials/day for 4 days) and memory (a probe test of 1 min, 24 hours after the last trial) was evaluated, with the first training started 9 days after the last dose of bryostatin-1. […] (Bry—bryostatin-1; Isch—cerebral ischemia; NS—not significant) (*, P<0.05).

[1] = tested on: fragile X transgenic mice; test: Synapses in fragile X transgenic mice; format: in vivo; conditions: 25 μg/kg body weight intraperitoneal twice a week for 3 months
Protocol: Protocol: Bryostatin (25 μg/kg body weight, intraperitoneal injection) was administered to 2 month old fragile X transgenic mice twice a week for 3 months. […] Non-treated groups (WC and TC) received the same vehicle volumes, mechanism of delivery, and frequency of administration as the treated groups.

[2] = tested on: healthy brown Norway rats; test: Learning, memory and mushroom spine synapses in healthy rats, water maze training; format: in vivo; parameters: learning acquisition: dose or concentration left out as unconfirmed
Excerpt: Protocol: Non-disease, healthy brown Norway rats (at 4-5 months old) were used in this study. […] (Nv=naîve controls; Sw=swim controls; Mz=water maze treatment; and Mz/Br=water maze treatment plus bryostatin treatment).

HuC and HuD proteins = test: Dendritic spines, presynaptic vesicles and HuC/HuD nuclear export in healthy rats after water maze training; format: in vivo; conditions: 10 μg/kg body weight intraperitoneal, 3 doses every other day; two days after 6-days of training
Protocol: Protocol: Non-diseased, healthy brown Norway rats (at 4-5 months old) were used in this study. Two days after 6-days of training, increases in dendritic spines (a, b) and presynaptic vesicle concentration (a, d) within unchanged axonal bouton density (a, c) were correlated with an increase in the nuclear export of HuC and HuD proteins into the dendritic shaft as compared with naive and swim controls (a, e). Those changes were enhanced with bryostatin treatment (10 μg/kg body weight, intraperitoneal injection, 3 doses every other day). Nv=naîve controls; Sw=swim controls; Mz=water maze treatment; and Mz/Br=water maze treatment plus bryostatin treatment).

[3] = clinical trials, Varterasian et al. 2000; cited from earlier work
[4] = postischemic/hypoxic treatment; Sun and Alkon 2008; cited from earlier work
[5] = 10 mg/kg body weight intraperitoneal, 3 doses every other days, during water maze training

**Q.** What does the source list for `CCC/C=C/C=C/C(=O)O[C@H]1/C(=C/C(=O)OC)C[C@H]2C[C@H]([C@@H](C)O)OC(=O)C[C@H](O)C[C@@H]3C[C@H](OC(C)=O)C(C)(C)[C@](O)(C[C@@H]4C/C(=C/C(=O)OC)C[C@H](/C=C/C(C)(C)[C@]1(O)O2)O4)O3` [Bryostatin, bryostatin-1]?
**A.** co-localized staining of PSD-95 and synaptophysin in puncta (number of synapses) (Primary human neurons; 30 days): an increase in co-localized staining of PSD-95 and synaptophysin in puncta; survival, neuritic branching and connections (Primary human neurons; 40 days): improved survival with increased neuritic branching and connections; protection against ASPD-induced apoptosis (Human primary neurons): protected against ASPD-induced apoptosis; neprilysin activity (human neprilysin): increases neprilysin activity; sensorimotor ability (visible platform test) (cerebral ischemia rats; 2 doses/week for 10 doses (FIG. 23)): but not sensorimotor ability; learning experience and memory after cerebral ischemia (cerebral ischemia rats; 2 doses/week for 10 doses, training started 9 days after last dose (FIG. 23)): rescues learning experience and memory; losses of postsynaptic dendritic spines [1]: rescued the losses of; losses of presynaptic vesicles within presynaptic axonal boutons [1]: rescued the losses of; losses of synapses [1]: rescued the losses of synapses; memory retention [2, 5]: promoted; memory-specific induction of mushroom spine synapses [2, 5]: promotes memory-specific induction of mushroom spine synapses; non-mushroom spine density in naïve rats ([2]; Bryostatin alone, no water maze): increased non-mushroom spine density; learning acquisition ([2]; intraperitoneal, 3 doses every other days, during water maze training): promoted learning acquisition; training-induced increases in dendritic spines, presynaptic vesicle concentration and nuclear export of HuC and HuD proteins (HuC and HuD proteins): enhanced; tumor growth promotion [3]: does not promote tumor growth; ischemia-induced deficits in synaptogenesis, neurotrophic activity, and spatial learning and memory [4]: effectively rescued ischemia-induced deficits in synaptogenesis, neurotrophic activity, and spatial learning and memory
